The source of these data is paper PMC8282797, “Strictly regulated agonist-dependent activation of AMPA-R is the key characteristic of TAK-653 for robust synaptic responses and cognitive improvement” (Scientific Reports, 2021).

In one assay the target is GluA2o LBD (Homo sapiens, UniProt P42262). In words: SPA binding of [3H]-AMPA to His-LBD. The text has this:
We previously reported that structural interference at Ser750 in the channel-closed state of GluA2o LBD might be involved in the molecular mechanisms underlying the lower agonistic effect of AMPA-R potentiators with dihydropyridothiadiazine 2,2-dioxide derivatives and discovered TAK-137, 9-(4-phenoxyphenyl)-3,4-dihydropyrido[2,1-c][1,2,4]thiadiazine 2,2-dioxide (Fig. 1A)[16]. […] TAK-653 bound to the intradimer interface formed by the ligand binding core (Fig. 1B). […] Binding affinity of TAK-653 to the GluA2o LBD was measured by a scintillation proximity assay (SPA) using [^3H]-HBT1, a radio-labeled LBD-binding AMPA-R potentiator, and a His-tagged GluA2o LBD protein (His-LBD)[21]. […] Binding of [^3H]-TAK-653 to His-LBD was also measured by SPA.
The SPA assays were performed as previously described, with some modifications. First, 62.5 μg YSi (2–5 μm) copper his-tag SPA beads (PerkinElmer Inc., Waltham, MA) and 0.25 μg His-tagged GluA2o LBD protein (His-LBD) were incubated in 100 μL PBS containing 0.01% NP-40 and 100 μM glutamate for the [^3H]-HBT1/LBD binding assay, containing 0.01% NP-40 and the indicated amount of glutamate for the [^3H]-TAK-653/LBD binding assay or containing 0.001% Triton X-100 for the [^3H]-AMPA/LBD binding assay in 96-well Luminunc plates (Thermo Fisher Scientific Inc.) overnight at 4 °C. Subsequently, test compound and tritium-labeled ligand (40 nM [^3H]-HBT1, 20 nM [^3H]-TAK-653 or 20 nM [^3H]-AMPA) were added to each well. Specific binding was defined as total binding minus nonspecific binding, which was estimated in the presence of 0.25 μg of control protein (His-tagged macrophage MIF protein) instead of His-LBD or in the presence of 3 mM AMPA. Radioactivity derived from the bound radio ligand was measured using a microplate scintillation counter (TopCount NXT, PerkinElmer Inc.).

A further assay has as its target T1, lipoxygenase 5-LO (Homo sapiens, UniProt P09917).
T1 construct: Ricerca, Taipei, Taiwan
T1 sequence (P09917 1-674): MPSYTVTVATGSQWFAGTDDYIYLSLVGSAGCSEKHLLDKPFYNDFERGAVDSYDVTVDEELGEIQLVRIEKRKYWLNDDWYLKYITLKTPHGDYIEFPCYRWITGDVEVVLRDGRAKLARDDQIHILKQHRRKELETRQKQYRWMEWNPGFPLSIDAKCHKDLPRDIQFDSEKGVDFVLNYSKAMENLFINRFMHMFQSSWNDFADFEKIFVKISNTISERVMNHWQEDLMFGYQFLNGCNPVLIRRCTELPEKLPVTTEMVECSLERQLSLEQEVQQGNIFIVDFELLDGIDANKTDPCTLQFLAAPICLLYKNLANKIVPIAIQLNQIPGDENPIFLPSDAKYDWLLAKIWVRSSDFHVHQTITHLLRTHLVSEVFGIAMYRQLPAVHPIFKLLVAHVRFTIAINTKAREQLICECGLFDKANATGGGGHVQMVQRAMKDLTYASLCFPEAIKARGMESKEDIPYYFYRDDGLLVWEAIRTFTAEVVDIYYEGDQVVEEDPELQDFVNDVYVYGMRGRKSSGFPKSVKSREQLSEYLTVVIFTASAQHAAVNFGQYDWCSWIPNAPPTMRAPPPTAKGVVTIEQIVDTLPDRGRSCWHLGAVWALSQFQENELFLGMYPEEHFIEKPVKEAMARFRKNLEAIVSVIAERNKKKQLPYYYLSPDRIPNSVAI
In words: Lipoxygenase 5-LO enzyme activity. In kind it is biochemical.

A further assay has as its target T2, hGluA1i (Homo sapiens, UniProt P42261).
T2 construct: expressed in transfected cells; host or cells: CHO cells
In words: Ca2+ influx assay in hGluA1i CHO cells. Conditions: in the presence of glutamate (3 mM). In kind it is cell-based. How it is done:
Ca^2+ influx assays using human GluA1/flip and human stargazin co-expressing CHO cells plated at 3 × 10^4 cells/well in 96-well Black Clear plates (Corning Incorporated, Corning, NY) were performed as previously described, with some modifications. For evaluation of the species difference, rat GluA1/flip expressing CHO cells were plated. For mutant channels, the human GluA1i S743A mutant was generated using the In-Fusion HD Cloning Kit (Takara Bio Inc., Kusatsu, Japan) according to the manufacturer's protocol and transiently introduced to CHO cells by Gene Pulser II Electroporation System (Bio-Rad Laboratories, Inc., Hercules, CA). Relative increases of intracellular Ca^2+ levels were monitored for 3 min with a fluorometric imaging plate reader (CellLux, Perkin Elmer Life and Analytical Sciences, Inc., Shelton, CT). […]
Human GluA1/flip and human stargazin co-expressing CHO cells were plated at 3×10^4 cells/well in 96-well Black Clear plate (Corning Incorporated, Corning, NY). […] Relative increases of intracellular Ca^2+ levels by compounds in the presence and absence of 3 mM L-glutamate were monitored for 3 min by fluorometric imaging plate reader (CellLux, Perkin Elmer Life and Analytical Sciences, Inc., Shelton, CT). Activity of compound was defined as integration value of fluorescence value of each detection point. […] EC50 values were calculated by logistic regression analysis.

As a reminder, the EC50 is the concentration needed to bring the measured effect to its halfway point. As a reminder, the Emax is the maximal effect, on the per cent scale that the assay sets. One may read the IC50 as the concentration that inhibits the measured activity by half. A higher IC50 goes with lower potency.

Chain of GluA2o LBD (P42262 with tags, fused parts or gaps): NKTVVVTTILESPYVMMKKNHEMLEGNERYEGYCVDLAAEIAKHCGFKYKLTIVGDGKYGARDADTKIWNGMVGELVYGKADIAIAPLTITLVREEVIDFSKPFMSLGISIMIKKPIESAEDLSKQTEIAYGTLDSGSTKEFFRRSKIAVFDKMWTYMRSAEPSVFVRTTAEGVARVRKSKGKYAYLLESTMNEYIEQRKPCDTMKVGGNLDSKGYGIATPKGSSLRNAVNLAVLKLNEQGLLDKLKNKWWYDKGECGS
T2 sequence (P42261 19-906 isoform P42261-2 limits assumed): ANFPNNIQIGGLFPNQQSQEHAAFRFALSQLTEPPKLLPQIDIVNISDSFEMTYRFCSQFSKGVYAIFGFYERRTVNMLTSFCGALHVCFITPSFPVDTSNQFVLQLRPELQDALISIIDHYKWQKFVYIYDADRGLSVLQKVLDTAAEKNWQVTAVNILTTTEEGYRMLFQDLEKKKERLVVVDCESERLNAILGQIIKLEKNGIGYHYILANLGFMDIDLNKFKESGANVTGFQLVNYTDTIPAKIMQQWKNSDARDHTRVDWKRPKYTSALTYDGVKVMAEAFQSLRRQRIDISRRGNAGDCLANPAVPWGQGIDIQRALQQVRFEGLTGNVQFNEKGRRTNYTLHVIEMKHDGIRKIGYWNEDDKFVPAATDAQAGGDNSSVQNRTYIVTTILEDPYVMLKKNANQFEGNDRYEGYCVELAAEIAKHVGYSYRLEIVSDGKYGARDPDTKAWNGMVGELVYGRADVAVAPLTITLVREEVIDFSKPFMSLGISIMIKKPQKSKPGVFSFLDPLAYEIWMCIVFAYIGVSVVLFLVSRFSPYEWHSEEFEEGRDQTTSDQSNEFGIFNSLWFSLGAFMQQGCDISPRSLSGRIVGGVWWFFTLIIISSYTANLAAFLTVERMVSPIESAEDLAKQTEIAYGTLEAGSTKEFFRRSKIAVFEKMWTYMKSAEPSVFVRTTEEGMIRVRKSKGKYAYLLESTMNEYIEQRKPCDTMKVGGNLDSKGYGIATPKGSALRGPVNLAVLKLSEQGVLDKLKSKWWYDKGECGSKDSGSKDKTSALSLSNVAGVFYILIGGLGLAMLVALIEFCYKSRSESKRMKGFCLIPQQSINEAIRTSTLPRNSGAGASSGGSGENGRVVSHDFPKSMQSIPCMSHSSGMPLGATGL
T2 sequence (Q9Y698 whole entry partner): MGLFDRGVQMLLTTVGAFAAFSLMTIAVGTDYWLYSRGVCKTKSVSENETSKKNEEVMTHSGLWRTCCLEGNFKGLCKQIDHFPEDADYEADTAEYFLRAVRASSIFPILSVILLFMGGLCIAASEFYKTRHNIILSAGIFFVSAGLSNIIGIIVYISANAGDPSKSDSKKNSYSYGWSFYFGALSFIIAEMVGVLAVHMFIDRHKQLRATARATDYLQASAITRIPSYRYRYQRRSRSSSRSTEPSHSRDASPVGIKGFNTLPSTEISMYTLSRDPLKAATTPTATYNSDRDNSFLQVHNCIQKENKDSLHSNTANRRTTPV

For `CC1=CN2CCS(=O)(=O)N=C2C(c2ccc(OC3CCCCC3)cc2)=N1` [TAK-653, 9-[4-(Cyclohexyloxy)phenyl]-7-methyl-3,4-dihydropyrazino[2,1-c][1,2,4]thiadiazine 2,2-dioxide], the “Inhibition of specific binding of [3H]-AMPA to His-LBD” value on GluA2o LBD is listed as “did not inhibit”. Moreover, the EC50 at GluA2o LBD (SPA, 20 nM [3H]-AMPA, read-out: EC50 of increase in [3H]-AMPA binding) is 1.5 ± 0.2 µM; on hGluA1i, 3.3 µM. Further, the maximum response (Emax) on GluA2o LBD (SPA, 20 nM [3H]-AMPA, read-out: Emax of increase in [3H]-AMPA binding) amounted to 19.9 ± 3.4%. Further, at lipoxygenase 5-LO, half-maximal inhibition (IC50) required 5.9 µM.
